Converted amounts (≈) assume the structure as drawn. The source made the active and inactive calls. The rule behind the calls is not given here.
How the values were obtained:
Format in all cases: functional
HCT-8 = experiment: Cytotoxicity against human HCT8 cells
[1] = Cytotoxicity against MDR human KB-VIN cells expressing P-glycoprotein
A-431 = experiment: Cytotoxicity against human A431 cells; settings: for EC50: read-out: ED50 (the source's name)
KB = experiment: Cytotoxicity against human KB cells by sulforhodamine B assay
A549 = experiment: Cytotoxicity against human A549 cells
1A9 = experiment: Cytotoxicity against human 1A9 cells by sulforhodamine B assay
[2] = read-out: ED50 (the source's name)

Compound	Activity (HCT-8)	Activity [1]	Activity (A-431)	Activity (KB)	Activity (A549)	Activity (1A9)	EC50 (A-431)	EC50 (HCT-8; [2])	EC50 ([1]; KBVIN, read-out: ED50 (the source's name))	EC50 (KB; [2])	EC50 (A549; [2])	EC50 (1A9; [2])	ED50 (A-431)
CCN(CC)CCC(=O)O[C@H]1C[C@H]2OC[C@@]2(OC(C)=O)[C@H]2[C@H](OCc3ccccc3)[C@]3(O)C[C@H](OC(=O)[C@H](OC(=O)CCC(=O)Oc4c(C)c(C)c5c(c4C)OC(C)(CCC[C@@H](C)CCC[C@@H](C)CCCC(C)C)CC5)[C@@H](NCc4ccccc4)c4ccccc4)C(C)=C([C@@H](OC(C)=O)C(=O)[C@]12C)C3(C)C (stereo in doubt; 27)	inactive	inactive	inactive	inactive	inactive	inactive	–	–	–	–	–	–	–
COc1cc(/C=C/C(=O)CC(=O)/C=C/c2ccc(O)c(OC)c2)ccc1O [CURCUMIN]	inactive	inactive	–	inactive	inactive	inactive	0.75 µg/mL (≈ 2.04 µM)	–	–	–	–	–	–
CC(=O)O[C@H]1C(=O)[C@]2(C)[C@@H](OC(=O)CCN3CCCCC3)C[C@H]3OC[C@@]3(OC(C)=O)[C@H]2[C@H](OCc2ccccc2)[C@]2(O)C[C@H](OC(=O)[C@H](OC(=O)CCC(=O)Oc3c(C)c(C)c4c(c3C)OC(C)(CCC[C@@H](C)CCC[C@@H](C)CCCC(C)C)CC4)[C@@H](NCc3ccccc3)c3ccccc3)C(C)=C1C2(C)C (some centres not stated)	inactive	inactive	inactive	inactive	inactive	inactive	–	–	–	–	–	–	–
CC(=O)O[C@H]1C(=O)[C@@]2(C)[C@H]([C@H](OCc3ccccc3)[C@]3(O)C[C@H](OC(=O)[C@H](OC(=O)CCC(=O)Oc4c(C)c(C)c5c(c4C)OC(C)(CCC[C@@H](C)CCC[C@@H](C)CCCC(C)C)CC5)[C@@H](NCc4ccccc4)c4ccccc4)C(C)=C1C3(C)C)[C@]1(OC(C)=O)CO[C@@H]1C[C@@H]2O (some centres not stated)	inactive	inactive	–	inactive	inactive	inactive	0.1 µg/mL (≈ 0.0747 µM)	–	–	–	–	–	–
CC(=O)O[C@H]1C(=O)[C@@]2(C)[C@H]([C@H](OC(=O)c3ccccc3)[C@]3(O)C[C@H](OC(=O)[C@H](O)[C@@H](NC(=O)c4ccccc4)c4ccccc4)C(C)=C1C3(C)C)[C@]1(OC(C)=O)CO[C@@H]1C[C@@H]2O [PACLITAXEL]	–	–	–	–	–	–	0.01 µg/mL (≈ 0.0117 µM)	0.06 µg/mL (≈ 0.0703 µM)	0.2 µg/mL (≈ 0.234 µM)	0.002 µg/mL (≈ 0.00234 µM)	0.02 µg/mL (≈ 0.0234 µM)	0.001 µg/mL (≈ 0.00117 µM)	–
CCN(CC)CCC(=O)O[C@H]1C[C@H]2OC[C@@]2(OC(C)=O)[C@H]2[C@H](OCc3ccccc3)[C@]3(O)C[C@H](OC(=O)[C@H](OC(=O)CCC(=O)Oc4c(C)c(C)c5c(c4C)OC(C)(CCC[C@@H](C)CCC[C@@H](C)CCCC(C)C)CC5)[C@@H](NCc4ccccc4)c4ccccc4)C(C)=C([C@@H](OC(C)=O)C(=O)[C@]12C)C3(C)C (stereo in doubt; 27a)	inactive	inactive	inactive	inactive	inactive	inactive	–	–	–	–	–	–	–
VITAMIN E	inactive	inactive	–	inactive	inactive	inactive	–	–	–	–	–	–	0.75 µg/mL

Source: ChEMBL document CHEMBL1146245, “Antitumor agents. 258. Syntheses and evaluation of dietary antioxidant--taxoid conjugates as novel cytotoxic agents” (2007)
